# Source: patent publication US20040063949A1, “Compounds” (priority 2001, published 2004)
# Read-outs that look alike come from different tables or passages of the source.
# System: TGF-β signaling (PAI-1 promoter-luciferase in HepG2 cells)
# Assay: Assay 1: PAI-1 promoter luciferase reporter assay in HepG2 cells exposed to TGF-β
# Experimental: The assay was performed in HepG2 cells stably transfected with the PAI-1 promoter (known to be a strong TGF-β responsive promoter) linked to a luciferase (firefly) reporter gene. The compounds were selected on their ability to inhibit luciferase activity in cells exposed to TGF-β. In addition cells were transfected with a second luciferase (Renilla) gene which was not driven by a TGF-β responsive promoter and was used as a toxicity control.
# (96 well) microplates are seeded, using a multidrop apparatus, with the stably transfected cell line at a concentration of 35000 cells per well in 200 μl of serum-containing medium. These plates are placed in a cell incubator.
# 18 to 24 hours later (Day 2), cell-incubation procedure is launched. Cells are incubated with TGF-β and a candidate compound at concentrations in the range 50 nM to 10 μM (final concentration of DMSO 1%). The final concentration of TGF-β (rhTGFβ-1) used in the test is 1 ng/mL. […] The final volume of the test reaction is 150 μl. Each well contains only one candidate compound and its effect on the PAI-1 promoter is monitored.
# Columns 11 and 12 are employed as controls. Column 11 contains 8 wells in which the cells are incubated in the presence of TGF-β, without a candidate compound. Column 11 is used to determine the ‘reference TGF-β induced firefly luciferase value’ against which values measured in the test wells (to quantify inhibitory activity) may be compared. In wells A12 to D12, cells are grown in medium without TGF-β. […]
# 12 to 18 hours later (day 3), the luciferase quantification procedure is launched. […] Following agitation (15 to 30 mins), luciferase activities of the plates are read in a dual-injector luminometer (BMG lumistar). For this purpose, 50 μl of luciferase assay reagent and 50 μl of ‘Stop & Glo’ buffer are injected sequentially to quantify the activities of both luciferases. […] For each of the compounds tested, a concentration response curve is constructed from which an IC50 value can be determined graphically.
compound,measurement,setting,value
"c1ccc(-c2n[nH]cc2-c2ccc3ncccc3n2)nc1 [Example 1, 2-(3-Pyridin-2-yl-1H-pyrazol-4-yl)-1,5-naphthyridine]",IC50,"Homo sapiens, HepG2, read-out: IC50 value in Assay 1 (inhibition of TGF-β induced firefly luciferase activity)",~50 nM
Cc1cccc(-c2n[nH]cc2-c2ccc3ncccc3n2)n1 [Example 2],IC50,"read-out: IC50 value in Assay 1 (inhibition of TGF-β induced firefly luciferase activity), HepG2 cells stably transfected with PAI-1 promoter-luciferase, rhTGFβ-1 1 ng/mL, 1% DMSO",~50 nM
"O=C1C=CCC1 [CPO, Cyclopentenone, reference compound]",firefly and renilla luciferase activities relative to those obtained in column 11 (TGF-β only),"500 μM CPO in presence of TGF-β, toxicity control wells E12 to H12",around 50%
